The values that follow come from US11555012B2 (Nimbus Artemis, Inc., priority 2018, dated 2023).

Where two headings read alike, the source gives them in different places.

Experiment [1] has as its target T1, ACL (Homo sapiens (Human), UniProt P53396). The experiment can be described thus: ADP-Glo Assay. (In general: ADP-Glo first removes unused ATP, then detects ADP through luciferase.)
Target sequence in this assay (P53396 other isoform, or with tags, fused parts or gaps isoform P53396-2): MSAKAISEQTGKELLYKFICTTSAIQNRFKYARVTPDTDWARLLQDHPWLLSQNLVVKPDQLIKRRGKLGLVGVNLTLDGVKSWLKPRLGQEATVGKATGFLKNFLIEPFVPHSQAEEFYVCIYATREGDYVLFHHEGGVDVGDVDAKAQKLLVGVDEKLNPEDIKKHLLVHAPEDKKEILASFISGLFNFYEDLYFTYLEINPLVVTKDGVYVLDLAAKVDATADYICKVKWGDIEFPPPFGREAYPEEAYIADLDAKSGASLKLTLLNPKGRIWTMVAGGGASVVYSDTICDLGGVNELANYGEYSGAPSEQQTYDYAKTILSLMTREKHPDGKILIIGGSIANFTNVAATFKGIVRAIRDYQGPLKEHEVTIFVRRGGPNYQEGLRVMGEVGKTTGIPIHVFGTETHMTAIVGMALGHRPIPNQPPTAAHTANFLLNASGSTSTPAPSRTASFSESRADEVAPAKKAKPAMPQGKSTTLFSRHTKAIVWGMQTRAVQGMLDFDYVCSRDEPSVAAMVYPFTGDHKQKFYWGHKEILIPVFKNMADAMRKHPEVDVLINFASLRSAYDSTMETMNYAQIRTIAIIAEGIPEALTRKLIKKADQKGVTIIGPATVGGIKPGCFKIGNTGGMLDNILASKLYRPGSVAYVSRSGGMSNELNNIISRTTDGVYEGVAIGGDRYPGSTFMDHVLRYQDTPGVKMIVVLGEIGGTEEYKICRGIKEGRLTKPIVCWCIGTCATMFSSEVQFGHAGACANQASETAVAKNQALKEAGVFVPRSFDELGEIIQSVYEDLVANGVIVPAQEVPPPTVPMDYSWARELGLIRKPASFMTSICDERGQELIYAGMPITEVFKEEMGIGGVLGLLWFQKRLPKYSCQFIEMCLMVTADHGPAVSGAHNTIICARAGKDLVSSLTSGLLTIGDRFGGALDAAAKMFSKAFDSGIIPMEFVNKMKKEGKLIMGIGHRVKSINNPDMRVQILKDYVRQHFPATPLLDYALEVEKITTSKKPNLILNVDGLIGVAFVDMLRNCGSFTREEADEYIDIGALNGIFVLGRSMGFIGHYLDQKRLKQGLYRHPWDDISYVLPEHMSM
The target of experiment [2] is T1, ACL. Nature of the experiment: ACLY-MDH Coupled Assay.
Target sequence in this assay (P53396 whole entry, species assumed): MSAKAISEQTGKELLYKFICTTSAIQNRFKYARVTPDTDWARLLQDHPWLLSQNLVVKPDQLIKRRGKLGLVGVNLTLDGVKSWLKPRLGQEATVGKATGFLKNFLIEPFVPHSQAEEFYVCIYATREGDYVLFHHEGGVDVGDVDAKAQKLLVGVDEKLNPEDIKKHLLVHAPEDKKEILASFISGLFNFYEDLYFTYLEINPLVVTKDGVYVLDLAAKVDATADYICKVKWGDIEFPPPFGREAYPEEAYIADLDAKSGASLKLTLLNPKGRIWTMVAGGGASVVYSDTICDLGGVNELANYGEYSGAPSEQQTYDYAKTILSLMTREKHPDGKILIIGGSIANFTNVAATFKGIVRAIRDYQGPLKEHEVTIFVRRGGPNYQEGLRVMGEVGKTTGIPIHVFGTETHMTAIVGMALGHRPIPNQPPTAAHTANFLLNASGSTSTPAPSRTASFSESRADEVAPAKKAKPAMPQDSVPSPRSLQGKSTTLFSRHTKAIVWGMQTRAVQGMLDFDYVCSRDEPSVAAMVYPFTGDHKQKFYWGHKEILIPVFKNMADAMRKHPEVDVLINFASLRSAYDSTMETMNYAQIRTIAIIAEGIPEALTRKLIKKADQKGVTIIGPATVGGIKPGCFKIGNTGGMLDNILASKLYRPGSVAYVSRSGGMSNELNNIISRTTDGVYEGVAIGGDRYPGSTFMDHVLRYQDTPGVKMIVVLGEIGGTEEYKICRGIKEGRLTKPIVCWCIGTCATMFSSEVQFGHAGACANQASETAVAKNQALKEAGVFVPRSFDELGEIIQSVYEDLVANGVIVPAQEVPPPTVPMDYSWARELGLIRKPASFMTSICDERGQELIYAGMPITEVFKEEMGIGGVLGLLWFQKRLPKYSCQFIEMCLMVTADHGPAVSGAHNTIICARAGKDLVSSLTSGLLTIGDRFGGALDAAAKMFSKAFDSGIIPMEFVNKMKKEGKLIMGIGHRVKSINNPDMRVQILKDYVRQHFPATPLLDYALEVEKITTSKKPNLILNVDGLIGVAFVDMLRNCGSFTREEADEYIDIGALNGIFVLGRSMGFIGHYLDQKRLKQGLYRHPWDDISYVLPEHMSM
Method: Compounds of the present invention were evaluated in an ACLY Coupled Assay.
The assay protocol for the Coupled Assay (below) was followed:
b) Add 1 μL cpds to 96 assay plate, Test cpd conc: 100/30/10 μM top dose, 3 folds dilution, 10+0+control (control: buffer without ACL+DMSO) points, 1000 rpm for 1 min, incubation at 25° C. for 60 min
Experiment [3] has as its system HepG2 cells. The following applies: Homo sapiens, HepG2, read-out: ACLY HepG2 14C-Pyruvate Assay serum free IC50 Cholesterol (IC50) [μM].
Method: ACLY HepG2 ^14C-Pyruvate Incorporation Serum-Free Assay (IC50 Cholesterol and Fatty Acid Synthesis)
Compounds of the present invention were evaluated in a HepG2 ^14C-pyruvate incorporation assay. The protocol below was followed:
(§1) After 48 hours, change medium with fresh growth medium.
(§2) After 18 hours, replaced medium using 0.5 mL fresh medium (5.5 mM Glucose, without FBS, 1% PS, without Pyruvate) containing Compounds or 0.5% DMSO, incubated at 37° C., 5% CO2 for 1 hour.
(§3) Add 3 μci of [14C]-pyruvate per well to the cell samples were incubated at 37° C., 5% CO2 for 5 hours.
Medium was removed and placed into a 15 mL centrifuge tube. Add 0.5 mL of 0.1M NaOH to each well and then transfer the cell lysates into the corresponding 15 mL centrifuge tubes. 1.0 mL of EtOH and 0.17 mL 50% KOH were added to 15 mL tubes containing medium and cell suspensions, then shaking tube gently. […] Saponification 15 mL tubes containing medium and cell suspensions were incubated at 90° C. for 1 hour, then cooled to room temperature. […] Cholesterol Extraction 5 mL of petroleum ether was added per tube to extract Cholesterol, shaken vigorously, centrifuged at 1000 rpm for 5 min, and ˜5 mL of the petroleum ether layer was transferred to a new glass tube (18*180 mm). […] Acidification The samples in 15 mL tube were acidified directly with 1 mL concentrated HCl, make sure pH was below 1. […] Fatty Acids Extraction 5 mL of petroleum ether was added per tube, shaken vigorously, centrifuged at 1000 rpm for 5 min, 5 mL of the petroleum ether layer was transferred to the corresponding glass tube. […] Count The petroleum ether extracts were pooled and evaporated to dryness overnight. The residue from the petroleum ether fractions were resuspended in 500 μL of chloroform-hexane (1:1) containing 420 μg of linoleic acid as a carrier. Add 200 μL of resuspending (chloroform-hexane (1:1) containing 168 μg of linoleic acid) to 2 mL Ultima Gold™, after 30 min, count on a scintillation counter.
Experiment [4] relates to HepG2 cells. The following applies: Homo sapiens, HepG2, read-out: ACLY HepG2 14C-Pyruvate Assay serum free IC50 FA (IC50) [μM].
Method: ACLY HepG2 ^14C-Pyruvate Incorporation Serum-Free Assay (IC50 Fatty
The protocol of the assay (below) was followed:
as §1, §2, §3
Medium was removed and placed into a 15 mL centrifuge tube. Add 0.5 mL of 0.1M NaOH to each well and then transfer the cell lysates into the corresponding 15 mL centrifuge tubes. 1.0 mL of EtOH and 0.17 mL 50% KOH were added to 15 mL tubes containing medium and cell suspensions, then shaking tube gently. […] Saponification 15 mL tubes containing medium and cell suspensions were incubated at 90° C. for 1 hour, then cooled to room temperature. […] Cholesterol Extraction 5 mL of petroleum ether was added per tube to extract Cholesterol, shaken vigorously, centrifuged at 1000 rpm for 5 min, and ˜5 mL of the petroleum ether layer was transferred to a new glass tube (18*180 mm). […] Acidification The samples in 15 mL tube were acidified directly with 1 mL concentrated HCl, make sure pH was below 1. […] Fatty Acids Extraction 5 mL of petroleum ether was added per tube, shaken vigorously, centrifuged at 1000 rpm for 5 min, 5 mL of the petroleum ether layer was transferred to the corresponding glass tube. […] Repeat the Step 8 10. Count The petroleum ether extracts were pooled and evaporated to dryness overnight. The residue from the petroleum ether fractions were resuspended in 500 μL of chloroform-hexane (1:1) containing 420 μg of linoleic acid as a carrier. Add 200 μL of resuspending (chloroform-hexane (1:1) containing 168 μg of linoleic acid) to 2 mL Ultima Gold™, after 30 min, count on a scintillation counter.
Setting [5] is: read-out: ACL-ADP-Glo (IC50), 3 nM ACL, 15 μM ATP, 3 μM CoA, 300 μM Citrate.
Setting [6] is: read-out: ACL-MDH Coupled Assay (IC50), 8 nM ACL, 60 μM CoA Na2, 85 μM Citrate, 250 μM ATP, 250 μM NADH.

For the molecule `O=S(=O)(Nc1cc(-c2ccccc2)c(F)cc1F)c1cc(Br)cc(Cl)c1O` [I-88, 5-bromo-3-chloro-N-[4,6-difluoro-[1,1-biphenyl]-3-yl]-2-hydroxybenzene-1-sulfonamide], the IC50 (commonly the concentration at which inhibition is half-maximal) was under 0.05 µM in experiment [1] (setting [5]), under 0.05 µM in experiment [2] (setting [6]), 1 to 5 µM in experiment [3] and over 10 µM in experiment [4].

As to `COC(=O)c1cc(Cl)c(O)c(S(=O)(=O)Nc2ccc(F)c(-c3ccccc3)c2F)c1` [I-110, Methyl 3-chloro-5-[(2,4-difluoro-3-phenylphenyl)sulfamoyl]-4-hydroxybenzoate], the IC50 in experiment [1] was 0.5 to 20 µM; in experiment [2], 0.5 to 30 µM; in experiment [3] it was 1 to 5 µM; in experiment [4], over 10 µM.

As to `O=S(=O)(Nc1ccc(-c2ccccn2)cc1F)c1cc(Cl)cc(Cl)c1O` [I-235, 3,5-dichloro-N-(2-fluoro-4-(pyridin-2-yl)phenyl)-2-hydroxybenzenesulfonamide], the IC50 was 0.5 to 20 µM in experiment [1], 0.5 to 30 µM in experiment [2], 1 to 5 µM in experiment [3] and over 10 µM in experiment [4].

As for `O=S(=O)(Nc1cc(-c2ccccc2)c(F)cc1F)c1cc(C(F)(F)F)cc(Cl)c1O` [I-117, 3-chloro-N-(4,6-difluoro-[1,1′-biphenyl]-3-yl)-2-hydroxy-5-(trifluoromethyl)benzenesulfonamide], the IC50 in experiment [1] (setting [5]) is under 0.05 µM; in experiment [2] (setting [6]), under 0.05 µM; in experiment [3], 1 to 5 µM; in experiment [4], 1 to 10 µM.

For the molecule `COC(=O)c1cc(Cl)c(O)c(S(=O)(=O)Nc2cc(C(C)C)c(F)cc2F)c1` [I-198, Methyl 3-chloro-5-(N-(2,4-difluoro-5-isopropylphenyl)sulfamoyl)-4-hydroxybenzoate], the IC50 in experiment [1] (setting [5]) was under 0.05 µM; in experiment [2] (setting [6]), under 0.05 µM; in experiment [3], 1 to 5 µM; in experiment [4], over 10 µM.

With `COc1cc(-c2ccccc2)ccc1NS(=O)(=O)c1cc(Cl)cc(Cl)c1O` [I-13, 3,5-dichloro-2-hydroxy-N-(3-methoxy-[1,1′-biphenyl]-4-yl)benzenesulfonamide], the IC50 in experiment [1] lay within 0.5 to 20 µM; in experiment [2], 0.5 to 30 µM; in experiment [3], 1 to 5 µM; in experiment [4] it was 1 to 10 µM.

As to `COc1ccc(-c2ccccc2)cc1NS(=O)(=O)c1c(C)c(Cl)cc(Cl)c1O` [I-1, 3,5-dichloro-2-hydroxy-N-(4-methoxy-[1,1′-biphenyl]-3-yl)-6-methylbenzenesulfonamide], the IC50 is 0.05 to 0.5 µM in experiment [1], 0.05 to 0.5 µM in experiment [2], 1 to 5 µM in experiment [3] and 1 to 10 µM in experiment [4].

Consider `CCC(=O)c1cc(Cl)c(O)c(S(=O)(=O)Nc2cc(-c3ccccc3)c(F)cc2F)c1` [I-101, 3-chloro-N-(2,4-difluoro-5-phenylphenyl)-2-hydroxy-5-propanoylbenzene-1-sulfonamide], for which the IC50 in experiment [1] (setting [5]) is under 0.05 µM; in experiment [2] (setting [6]) it was under 0.05 µM; in experiment [3], under 1 µM; in experiment [4], over 10 µM.

In the case of `O=C(c1cc(Cl)c(O)c(S(=O)(=O)Nc2cc(-c3ccccc3)c(F)cc2F)c1)N1CCCC1` [I-82, 3-chloro-N-(4,6-difluoro-[1,1′-biphenyl]-3-yl)-2-hydroxy-5-(pyrrolidine-1-carbonyl)benzenesulfonamide], the IC50 in experiment [1] (setting [5]) is under 0.05 µM; in experiment [2] (setting [6]) it was under 0.05 µM; in experiment [3], 1 to 5 µM; in experiment [4], over 10 µM.

Turning to `COc1ccc(-c2ccccc2)cc1NS(=O)(=O)c1cc(C(=O)N2CCC2)cc(Cl)c1O` [I-145, 5-(azetidine-1-carbonyl)-3-chloro-2-hydroxy-N-[4-methoxy-[1,1-biphenyl]-3-yl]benzene-1-sulfonamide], the IC50 in experiment [1] (setting [5]) was under 0.05 µM; in experiment [2] (setting [6]), under 0.05 µM; in experiment [3], 1 to 5 µM; in experiment [4] it was over 10 µM.

For `O=S(=O)(Nc1ccccc1OCc1ccccc1)c1cc(Cl)cc(Cl)c1O` [I-15, N-(2-(benzyloxy)phenyl)-3,5-dichloro-2-hydroxybenzenesulfonamide], the IC50 lay within 0.5 to 20 µM in experiment [1], 0.5 to 30 µM in experiment [2], 1 to 5 µM in experiment [3] and 1 to 10 µM in experiment [4].

As for `COc1ccc(-c2ccccc2)cc1NS(=O)(=O)c1cc(-c2ncco2)cc(Cl)c1O` [I-59, 3-chloro-2-hydroxy-N-(2-methoxy-5-phenylphenyl)-5-(1,3-oxazol-2-yl)benzene-1-sulfonamide], the IC50 is 0.05 to 0.5 µM in experiment [1], 0.05 to 0.5 µM in experiment [2], 1 to 5 µM in experiment [3] and over 10 µM in experiment [4].

Consider `O=C(O)c1ccc(C2CC2)cc1NS(=O)(=O)c1cc(Cl)cc(C(F)(F)F)c1` [I-344, 2-((3-chloro-5-(trifluoromethyl)phenyl)sulfonamido)-4-cyclopropylbenzoic acid], for which the IC50 was in the range of 0.5 to 20 µM in experiment [1], 0.5 to 30 µM in experiment [2], 1 to 5 µM in experiment [3] and 1 to 10 µM in experiment [4].

Consider `CON(C)C(=O)c1cc(Cl)c(O)c(S(=O)(=O)Nc2cc(-c3ccccc3)c(F)cc2F)c1` [I-87, 3-chloro-5-[(2,4-difluoro-5-phenylphenyl)sulfamoyl]-4-hydroxy-N-methoxy-N-methylbenzamide], for which the IC50 in experiment [1] (setting [5]) was under 0.05 µM; in experiment [2] (setting [6]), under 0.05 µM; in experiment [3] it was 1 to 5 µM; in experiment [4] it was over 10 µM.

As for `O=C(O)c1ccc(-c2ccccc2)cc1NS(=O)(=O)c1cc(F)cc(Cl)c1` [I-233, 3-((3-chloro-5-fluorophenyl)sulfonamido)-[1,1′-biphenyl]-4-carboxylic acid], the IC50 in experiment [1] lay in the range of 0.5 to 20 µM; in experiment [2], 0.05 to 0.5 µM; in experiment [3] it was 5 to 20 µM; in experiment [4] it was 1 to 10 µM.

Regarding `O=C(c1cc(Cl)c(O)c(S(=O)(=O)Nc2cc(-c3cc4ccccc4s3)c(F)cc2F)c1)N1CCC1` [I-138, 5-(azetidine-1-carbonyl)-N-[5-(1-benzothiophen-2-yl)-2,4-difluorophenyl]-3-chloro-2-hydroxybenzene-1-sulfonamide], the IC50 in experiment [1] (setting [5]) is under 0.05 µM; in experiment [2] (setting [6]), under 0.05 µM; in experiment [3], 1 to 5 µM; in experiment [4], 1 to 10 µM.

For the molecule `O=C(Oc1c(Cl)cc(C(=O)N2CCC2)cc1S(=O)(=O)Nc1cc(-c2ccccc2)c(F)cc1F)C1CC1` [I-236, 4-(azetidine-1-carbonyl)-2-chloro-6-(N-(4,6-difluoro-[1,1′-biphenyl]-3-yl)sulfamoyl)phenyl cyclopropanecarboxylate], the concentration for half-maximal inhibition (IC50) in experiment [1] (setting [5]) is under 0.05 µM; in experiment [2], 0.05 to 0.5 µM; in experiment [3], 1 to 5 µM; in experiment [4], over 10 µM.

For the molecule `COc1c(Cl)cc(Cl)cc1S(=O)(=O)Nc1cc(-c2ccccc2)ccc1C(=O)O` [I-281, 3-((3,5-dichloro-2-methoxyphenyl)sulfonamido)-[1,1′-biphenyl]-4-carboxylic Acid], the IC50 lay within 0.05 to 0.5 µM in experiment [1], 0.05 to 0.5 µM in experiment [2], 1 to 5 µM in experiment [3] and 1 to 10 µM in experiment [4].

For the molecule `O=S(=O)(c1cc(Cl)cc(Br)c1O)N(Cc1ccccc1)c1cc(-c2ccccc2)ccc1F` [I-36, N-benzyl-3-bromo-5-chloro-N-(4-fluoro-[1,1′-biphenyl]-3-yl)-2-hydroxybenzenesulfonamide], the IC50 in experiment [1] is 0.5 to 20 µM; in experiment [2], 0.5 to 30 µM; in experiment [3] it was 1 to 5 µM; in experiment [4] it was 1 to 10 µM.

For the molecule `O=S(=O)(Nc1cc(-c2ccccc2)ccc1F)c1cc(Br)cc(Cl)c1O` [I-34, 5-bromo-3-chloro-N-(2-fluoro-5-phenylphenyl)-2-hydroxybenzene-1-sulfonamide], the IC50 in experiment [1] was 0.05 to 0.5 µM; in experiment [2], under 0.05 µM; in experiment [3], 1 to 5 µM; in experiment [4], over 10 µM.

Regarding `CC(C)C(=O)Oc1c(Cl)cc(-c2cncs2)cc1S(=O)(=O)Nc1cc(-c2ccccc2)c(F)cc1F` [I-213, 2-chloro-6-(N-(4,6-difluoro-[1,1′-biphenyl]-3-yl)sulfamoyl)-4-(thiazol-5-yl)phenyl Isobutyrate], the IC50 fell in the range of 0.05 to 0.5 µM in experiment [1], 0.05 to 0.5 µM in experiment [2], 1 to 5 µM in experiment [3] and 1 to 10 µM in experiment [4].

Consider `CN(C)C(=O)c1cc(Cl)c(O)c(S(=O)(=O)Nc2cc(-c3ccccc3)c(F)cc2F)c1` [I-83, 3-chloro-5-[(2,4-difluoro-5-phenylphenyl)sulfamoyl]-4-hydroxy-N,N-dimethylbenzamide], for which the IC50 in experiment [3] is 1 to 5 µM; in experiment [4], over 10 µM.

Consider `O=S(=O)(Nc1cc(-c2nn[nH]n2)ccc1F)c1cc(Cl)cc(Cl)c1O` [I-24, 3,5-dichloro-N-[2-fluoro-5-(2H-1,2,3,4-tetrazol-5-yl)phenyl]-2-hydroxybenzene-1-sulfonamide], for which the IC50 is 0.5 to 20 µM in experiment [1] and 0.5 to 30 µM in experiment [2].

Turning to `O=C(O)COc1ccc(-c2ccccc2)cc1NS(=O)(=O)c1cc(Cl)cc(Cl)c1O` [I-212, 2-[[3-(3,5-dichloro-2-hydroxybenzenesulfonamido)-[1,1-biphenyl]-4-yl]oxy]acetic Acid], the IC50 in experiment [1] lay within 0.05 to 0.5 µM; in experiment [2] it was 0.5 to 30 µM.

As for `COc1ccc(-c2cc3ccccc3s2)cc1NS(=O)(=O)c1cc(C(=O)N2CCC2)cc(Cl)c1O` [I-503, 5-(azetidine-1-carbonyl)-N-(5-(benzo[b]thiophen-2-yl)-2-methoxyphenyl)-3-chloro-2-hydroxybenzenesulfonamide], the IC50 in experiment [1] (setting [5]) and in experiment [2] (setting [6]) was under 0.05 µM throughout.

Take `Cc1sc2ccccc2c1S(=O)(=O)Nc1cc(-c2ccccc2)ccc1C(=O)O` [I-333]: the IC50 in experiment [1] lay within 0.5 to 20 µM; in experiment [2], 0.5 to 30 µM.
